Assay results from ChEMBL document CHEMBL1201862, “PubChem BioAssay data set” (2004).
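Step 1: Grow cells in 96-well plates. Step 2: Expose to compound for 48 hours at 5 concentrations. Step 3: Interpolate endpoints linearly; if unreached, use highest concentration. GI50 marks 50% less growth.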 Calls of active or inactive are those of the source. Rule as the data show it: active = GI50 up to about 1.1 µM and inactive = higher.

Columns and labels:
Experiment in all cases: DTP human tumour cell line panel, 48 h
A498 = system: A498
HOP-92 = system: HOP-92
HT-29 = system: HT-29
IGROV-1 = system: IGROV-1
KM12 = system: KM12
LOX IMVI = system: LOX IMVI
MCF7 = system: MCF7
NCI-H226 = system: NCI-H226
OVCAR-8 = system: OVCAR-8
RXF 393 = system: RXF 393
SF-268 = system: SF-268
SF-295 = system: SF-295
SF-539 = system: SF-539
SR = system: SR
SW-620 = system: SW-620
T47D = system: T47D
TK-10 = system: TK-10
UO-31 = system: UO-31
CCRF-CEM = system: CCRF-CEM
COLO 205 = system: COLO 205

| Compound | GI50 (A498) | GI50 (HOP-92) | GI50 (HT-29) | GI50 (IGROV-1) | GI50 (KM12) | GI50 (LOX IMVI) | GI50 (MCF7) | GI50 (NCI-H226) | GI50 (OVCAR-8) | GI50 (RXF 393) | GI50 (SF-268) | GI50 (SF-295) | GI50 (SF-539) | GI50 (SR) | GI50 (SW-620) | GI50 (T47D) | GI50 (TK-10) | GI50 (UO-31) | GI50 (CCRF-CEM) | GI50 (COLO 205) |
| --- | --- | --- | --- | --- | --- | --- | --- | --- | --- | --- | --- | --- | --- | --- | --- | --- | --- | --- | --- | --- |
| C=CC(c1ccccc1)C1(O)c2cccc(O)c2C(=O)c2c(O)cccc21 (centres undefined) | 19.6 µM (inactive) | 15.9 µM (inactive) | 11.5 µM (inactive) | 14.9 µM (inactive) | 12.8 µM (inactive) | 16.4 µM (inactive) | 17.1 µM (inactive) | 19.4 µM (inactive) | 19.7 µM (inactive) | 14.2 µM (inactive) | 17.3 µM (inactive) | 14.9 µM (inactive) | 29.3 µM (inactive) | 5.89 µM (inactive) | 15.1 µM (inactive) | 16.9 µM (inactive) | 19.2 µM (inactive) | 19.8 µM (inactive) |  |  |
| N#CCCN(CCCN(C(=O)Nc1ccc(NC(=O)N(CCCN(CCC#N)C(N)=O)c2ccccc2)cc1)c1ccccc1)C(N)=O | > 100 µM (inactive) | > 100 µM (inactive) | > 100 µM (inactive) |  | > 100 µM (inactive) | > 100 µM (inactive) | 4.72 µM (inactive) | > 100 µM (inactive) | > 100 µM (inactive) | > 100 µM (inactive) | > 100 µM (inactive) | > 100 µM (inactive) | > 100 µM (inactive) | > 100 µM (inactive) | > 100 µM (inactive) | > 100 µM (inactive) | > 100 µM (inactive) | > 100 µM (inactive) | 87.5 µM (inactive) | > 100 µM (inactive) |
| CCSCC(N)C(=O)O (centres undefined) | > 100 µM (inactive) | 0.0337 µM (active) | > 100 µM (inactive) | > 100 µM (inactive) | > 100 µM (inactive) | > 100 µM (inactive) | > 100 µM (inactive) | > 100 µM (inactive) | > 100 µM (inactive) | > 100 µM (inactive) | > 100 µM (inactive) | > 100 µM (inactive) |  | > 100 µM (inactive) | > 100 µM (inactive) | > 100 µM (inactive) | > 100 µM (inactive) | > 100 µM (inactive) | > 100 µM (inactive) | > 100 µM (inactive) |
| CC(=O)c1ccc(N2CCN(C3=C(Cl)C(=O)c4c(O)ccc(O)c4C3=O)CC2)cc1 | 17.6 µM (inactive) | 2.11 µM (inactive) | 2.12 µM (inactive) | 4 µM (inactive) | 10 µM (inactive) |  | 1.49 µM (inactive) |  | 3.86 µM (inactive) | 3.02 µM (inactive) | 3.1 µM (inactive) | 18.8 µM (inactive) | 13.8 µM (inactive) | 2 µM (inactive) | 3.02 µM (inactive) | 2.91 µM (inactive) | 5.14 µM (inactive) | 10.9 µM (inactive) | 0.417 µM (active) | 2.67 µM (inactive) |
| CN(C)CCNC(=O)Cn1ccc(=O)c2ccc([N+](=O)[O-])cc21 | > 100 µM (inactive) | > 100 µM (inactive) | 52 µM (inactive) | > 100 µM (inactive) | > 100 µM (inactive) | > 100 µM (inactive) | > 100 µM (inactive) | > 100 µM (inactive) |  | > 100 µM (inactive) | > 100 µM (inactive) | > 100 µM (inactive) | > 100 µM (inactive) | > 100 µM (inactive) | > 100 µM (inactive) | > 100 µM (inactive) | > 100 µM (inactive) | > 100 µM (inactive) | > 100 µM (inactive) | 47.1 µM (inactive) |
| CCCCCCCCCCCCCCCC(=O)OC(COC(C)=O)CO[PH](=O)O (centres undefined) | > 100 µM (inactive) | 12 µM (inactive) |  | 22.3 µM (inactive) | 18.3 µM (inactive) | 23.2 µM (inactive) | > 100 µM (inactive) |  | 18.1 µM (inactive) | 36 µM (inactive) | 19.3 µM (inactive) | 17.6 µM (inactive) | 20.8 µM (inactive) | 24.9 µM (inactive) | 33.2 µM (inactive) | 53.2 µM (inactive) | 29 µM (inactive) | 26.3 µM (inactive) | 37.2 µM (inactive) | 96.8 µM (inactive) |
| CSc1nc(SC)c2c(C)cn(Cc3ccccc3)c2n1 | > 100 µM (inactive) | 20.6 µM (inactive) | 41.7 µM (inactive) | > 100 µM (inactive) | > 100 µM (inactive) | 60.4 µM (inactive) | 45.4 µM (inactive) | > 100 µM (inactive) | > 100 µM (inactive) |  | > 100 µM (inactive) | > 100 µM (inactive) | 93.1 µM (inactive) | 32.4 µM (inactive) | > 100 µM (inactive) | 33.9 µM (inactive) | > 100 µM (inactive) | 56.8 µM (inactive) | 51.4 µM (inactive) | > 100 µM (inactive) |
| O=C1/C(=C\c2ccco2)Oc2ccccc21 | > 100 µM (inactive) | > 100 µM (inactive) | > 100 µM (inactive) | 99.1 µM (inactive) | > 100 µM (inactive) | > 100 µM (inactive) | 29.4 µM (inactive) | > 100 µM (inactive) | > 100 µM (inactive) | > 100 µM (inactive) | > 100 µM (inactive) | > 100 µM (inactive) |  | 55.2 µM (inactive) | > 100 µM (inactive) | 72.3 µM (inactive) | > 100 µM (inactive) | 76.2 µM (inactive) | > 100 µM (inactive) | > 100 µM (inactive) |
